According to US20120156307A1, “MEDICAL USES OF NANOCLUSTERED WATER” (priority 2010, published 2012):
Read-outs that look alike come from different tables or passages of the source.

Key:
[1] = tested on: peripheral blood mononuclear cells (PBMC); assay: In vitro inhibition of PBMC proliferation; assay type: cell-based
[2] = tested on: in vitro reconstituted human 3D skin with a corneum layer; assay: Keratolytic effect, MTT assay on reconstituted human 3D skin; assay type: cell-based
Procedure: The assay was carried out on a three-dimensional reconstituted human skin model, composed of human epidermal keratinocytes that have been proliferating and differentiating in vitro in peculiar conditions in order to build up a well-differentiated stratum corneum. […] When the damage of the corneum layer is stronger, as it happens with keratolytic agents, the cytotoxic effects of the germinative layer are faster to develop. […] Thirty μL of each substance have been applied to the cell culture and incubation at 37° C. was performed for 15 and 120 minutes respectively.

[3] = tested on: in vitro reconstituted human 3D skin with a corneum layer; conditions: 1% SLS, 10% Glycolic acid, cited from earlier work

Row | SMILES | inhibition at 0.01 µM ([1]; Batch 1, 10 nM) [%] | inhibition at 0.01 µM ([1]; Batch 2, 10 nM) [%] | inhibition at 0.01 µM ([1]; Batch 3, 10 nM) [%] | inhibition at 0.01 µM ([1]; Batch 4, 10 nM) [%] | inhibition at 0.01 µM ([1]; Mean, 10 nM) [%] | cell death (cytotoxic effect) ([2]; after 2 hours, 1% SLS) [%] | cell death, as generally stated for the reference agents ([3]; after 15') | cell death, as generally stated for the reference agents ([3]; after 2 h) | cell death ([2]; at 15', 10% glycolic acid) [%]
1 | C[C@H]1C[C@H]2[C@@H]3CCC4=CC(=O)C=C[C@]4(C)[C@@]3(F)[C@@H](O)C[C@]2(C)[C@@]1(O)C(=O)CO [Betamethasone, betamethasone] | 87.7 | 85.7 | 79.4 | 88.5 | 85.3 |  |  |  | 
2 | CCCCCCCCCCCCOS(=O)(=O)[O-].[Na+] [SLS] |  |  |  |  |  | 27.69 | does not cause any cell death | about 30% | 
3 | O=C(O)CO [glycolic acid] |  |  |  |  |  |  | 50% | 90% | 45.86
